According to patent publication US20260001928A1 (CORTERIA PHARMACEUTICALS, priority 2022, published 2026):
*1 amine or outer side, *2 acyl side, *3 side chain or, on linkers, in order; H or OH if unused. Where a SMILES comes first, the peptide text is derived from it. Side-chain parts run from the residue outwards. [ ]: non-standard residue; d: D form. The star is where a group is joined. C20 diacid = O=C(O)CCCCCCCCCCCCCCCCCCC(=O)*; γGlu = O=C(O)[C@H](CCC(=O)[*:2])N[*:1]; NMeI = CC[C@H](C)[C@H](NC)C(=O)O; AEEA = NCCOCCOCC(=O)O; Aib = CC(C)(N)C(=O)O

What was measured:
[1] = target: T1, human CRF2a receptor (Homo sapiens, UniProt Q13324); experiment: Activity at human CRF2a receptor, cAMP functional assay in TeloHEAC cells; format: cell-based; settings: TeloHEAC cells stably expressing human CRF2a receptor, relative to urocortin 2 (100 nM = 100%)
T1 construct: expressed in transfected cells; host or cells: TeloHEAC cells
T1 sequence (Q13324 1-411): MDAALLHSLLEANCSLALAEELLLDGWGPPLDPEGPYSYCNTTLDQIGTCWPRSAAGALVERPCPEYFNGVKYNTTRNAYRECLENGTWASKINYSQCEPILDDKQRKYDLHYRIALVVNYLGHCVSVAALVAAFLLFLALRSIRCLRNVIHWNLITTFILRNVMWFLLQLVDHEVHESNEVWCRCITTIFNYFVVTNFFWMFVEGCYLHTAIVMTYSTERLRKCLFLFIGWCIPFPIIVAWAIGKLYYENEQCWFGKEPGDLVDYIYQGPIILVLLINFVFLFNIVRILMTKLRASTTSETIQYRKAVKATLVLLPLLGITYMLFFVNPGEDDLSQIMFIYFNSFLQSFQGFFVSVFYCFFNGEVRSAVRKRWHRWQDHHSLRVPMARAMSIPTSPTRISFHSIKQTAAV
Outline: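 cAMP accumulation was measured by HTRF 665/620 nm ratio after 30 min at 37° C compound exposure (16 twofold dilutions) of CRF2a-expressing TeloHEAC cells, 10000/well, in HEPES-buffered HBSS plus IBMX. Activity was normalised to urocortin 2 at 100 nM (100%), and EC50 was the concentration giving half-maximal activation.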

[2] = target: T2, CFR1R receptor (Homo sapiens, UniProt P34998); experiment: Activity at anti-target CFR1R receptor, cAMP assay in CRF1R-overexpression CHO-K1 cells; format: cell-based; settings: 100% = Sauvagine at 100 nM; for EC50: cAMP
T2 construct: host or cells: CHO-K1 (clone 2)
T2 sequence (P34998 24-415): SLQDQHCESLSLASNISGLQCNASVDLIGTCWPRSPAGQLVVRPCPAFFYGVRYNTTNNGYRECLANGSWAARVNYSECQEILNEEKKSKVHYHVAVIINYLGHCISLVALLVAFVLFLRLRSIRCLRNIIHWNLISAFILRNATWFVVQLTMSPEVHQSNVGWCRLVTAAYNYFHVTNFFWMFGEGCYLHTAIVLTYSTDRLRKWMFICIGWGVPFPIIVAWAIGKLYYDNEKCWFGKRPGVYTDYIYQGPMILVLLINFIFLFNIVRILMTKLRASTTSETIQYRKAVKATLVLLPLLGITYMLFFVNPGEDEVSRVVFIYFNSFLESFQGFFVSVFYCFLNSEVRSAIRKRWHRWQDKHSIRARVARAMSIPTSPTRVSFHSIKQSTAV
Outline: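 Signal is normalised to 100 nM Sauvagine, taken as 100% activation, in clone 2 cells plated at a final 4000 cells/well from frozen stocks.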

[3] = target: T3, rat CRF2 a (Rattus norvegicus, UniProt P47866); experiment: Activity at rat CRF2 a, cAMP assay in A7R5 rat aortic smooth muscle cells; format: cell-based; settings: 0% HSA, 100% = Sauvagine at 100 nM
T3 construct: host or cells: A7R5 rat aortic smooth muscle cells
Method: The A7R5 rat aortic smooth muscle cell line used in this study was purchased from ATCC.
Cells were grown in a 10 cm dish at 37° C./5% CO2 in medium (DMEM/10% FBS) to near confluence. At that stage, cells were harvested, resuspended to 10 million/mL in culture medium and with 5% DMSO. 1 mL vial aliquots were slowly frozen to −80° C. in isopropanol and then transferred in liquid nitrogen for storage.
These vials were used to run the experiment following the procedure reported in the previous paragraph, except for the compound used in the control well to define the 100% activation (Sauvagine at 100 nM) and the cell density (final cell density: 5000 cells/well).

[4] = In vitro subcutaneous tissue supernatant (SCts) stability and metabolite identification, rat; format: in vitro ADME; design: remaining at 2 h: dose or concentration left out as unconfirmed; settings: male, Sprague Dawley; rat subcutaneous tissue supernatant (SCts), 37° C, 2 h
[5] = Chemical stability in buffer (pH 7.4 / pH 4.5), % purity loss; format: physicochemical; settings: 40° C. vs 5° C., 14 or 28 days; for Buffer stability pH 7.4 % purity loss: 100 mM phosphate buffer pH 7.4
Outline: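 Compounds dissolved at 10 mg/mL target in 100 mM phosphate (pH 7.4) or 100 mM acetate (pH 4.5) buffer for 1 h at room temperature, then centrifuged. Diluted supernatant stored at 5 °C or 40 °C for 14 or 28 days; % purity loss by LC-UV.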

[6] = Pharmacokinetics in male Sprague Dawley rats after subcutaneous administration; format: in vivo; settings: plasma, rat, SC, 0.05 mg/kg
[7] = as above; format: in vivo; settings: plasma, rat, IV

T3 sequence (P47866 27-431 isoform P47866-2 limits assumed): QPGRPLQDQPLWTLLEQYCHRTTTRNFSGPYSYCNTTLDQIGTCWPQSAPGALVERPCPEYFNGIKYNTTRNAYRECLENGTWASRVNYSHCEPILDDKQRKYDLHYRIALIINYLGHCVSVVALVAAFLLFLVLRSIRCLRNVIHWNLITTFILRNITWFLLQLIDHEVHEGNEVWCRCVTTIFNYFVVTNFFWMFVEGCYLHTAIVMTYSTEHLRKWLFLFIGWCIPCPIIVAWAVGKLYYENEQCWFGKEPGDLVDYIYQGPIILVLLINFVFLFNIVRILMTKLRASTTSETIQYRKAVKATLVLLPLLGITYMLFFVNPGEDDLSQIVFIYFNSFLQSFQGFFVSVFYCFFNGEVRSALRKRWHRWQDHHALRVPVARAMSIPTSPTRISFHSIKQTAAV

EC50 [1] | Emax (% I) [2] | EC50 [2] | EC50 [3] | remaining at 2 h [4] | Buffer stability pH 7.4 % purity loss [5] | AUC(0-t) [6] | Cmax [6] | Tmax [6] | half-life [6] | AUC(0-t) ([7]; 0.025 mg/kg) | half-life ([7]; 0.025 mg/kg) | Buffer stability pH 4.5 % purity loss ([5]; 100 mM acetate buffer pH 4.5) | AUC(0-t) ([7]; 0.05 mg/kg) | half-life ([7]; 0.05 mg/kg) | SMILES
0.09 nM | 33 % I | > 250 nM | 0.06 nM | 76% | 1.8/Not Tested % | 4040 ng·h/mL | 138 ng/mL | 8 h | 720 min | 4120 ng·h/mL | 480 min | – | – | – | CC[C@H](C)[C@H](NC)C(=O)N[C@H](C(=O)N[C@@H](CC(C)C)C(=O)N[C@@H](CO)C(=O)N[C@@H](CC(C)C)C(=O)N[C@@H](CC(=O)O)C(=O)N[C@@H](C(=O)N1CCC[C@H]1C(=O)N[C@H](C(=O)N[C@@H](CCCCN)C(=O)N[C@@H](CC(C)C)C(=O)N[C@@H](CCCCNC(=O)CC[C@H](NC(=O)CCCCCCCCCCCCCCCCCCC(=O)O)C(=O)O)C(=O)N[C@@H](CCCCN)C(=O)N[C@H](C(=O)N[C@@H](CC(C)C)C(=O)N[C@@H](CC(C)C)C(=O)N[C@@H](CCC(=O)O)C(=O)N[C@@H](CCC(N)=O)C(=O)N[C@@H](CCC(=O)O)C(=O)N[C@@H](CCCCN)C(=O)N[C@@H](CCC(N)=O)C(=O)N[C@@H](CCCCN)C(=O)N[C@@H](C)C(=O)N[C@@H](CCC(N)=O)C(=O)N[C@@H](CCCNC(=N)N)C(=O)N[C@@H](CCC(=O)O)C(=O)N[C@@H](CCC(N)=O)C(=O)N[C@@H](C)C(=O)N[C@@H](CCC(=O)O)C(=O)N[C@H](C(=O)N[C@@H](CC(N)=O)C(=O)NC(C)(C)C(=O)N[C@@H](CCC(N)=O)C(=O)N[C@H](C(=O)N[C@@H](CC(C)C)C(=O)N[C@@H](C)C(=O)N[C@@H](CCC(N)=O)C(=O)N[C@H](C(N)=O)C(C)C)[C@@H](C)CC)[C@@H](C)O)[C@@H](C)CC)[C@@H](C)CC)C(C)C)C(C)C [compound 217] (H-[NMeI]VLSLD[dV]PIKLK([γGlu-C20 diacid])KILLEQEKQKAQREQAETN[Aib]QILAQV-NH2)
0.09 nM | 15 % I | > 250 nM | 0.05 nM | 68% | −0.1% | 2730 ng·h/mL | 95 ng/mL | 6 h | 450 min | 2700 ng·h/mL | 420 min | 0.0% | – | – | CC[C@H](C)[C@H](NC)C(=O)N[C@H](C(=O)N[C@@H](CC(C)C)C(=O)N[C@@H](CO)C(=O)N[C@@H](CC(C)C)C(=O)N[C@@H](CC(=O)O)C(=O)N[C@@H](C(=O)N1CCC[C@H]1C(=O)N[C@H](C(=O)N[C@@H](CCCCN)C(=O)N[C@@H](CC(C)C)C(=O)N[C@@H](CCCCNC(=O)COCCOCCNC(=O)CC[C@H](NC(=O)CCCCCCCCCCCCCCCCCCC(=O)O)C(=O)O)C(=O)N[C@@H](CCCCN)C(=O)N[C@H](C(=O)N[C@@H](CC(C)C)C(=O)N[C@@H](CC(C)C)C(=O)N[C@@H](CCC(=O)O)C(=O)N[C@@H](CCC(N)=O)C(=O)N[C@@H](CCC(=O)O)C(=O)N[C@@H](CCCCN)C(=O)N[C@@H](CCC(N)=O)C(=O)N[C@@H](CCCCN)C(=O)NC(C)(C)C(=O)N[C@@H](CCC(N)=O)C(=O)N[C@@H](CCCNC(=N)N)C(=O)N[C@@H](CCC(=O)O)C(=O)N[C@@H](CCC(N)=O)C(=O)N[C@@H](C)C(=O)N[C@@H](CCC(=O)O)C(=O)N[C@H](C(=O)N[C@@H](CC(N)=O)C(=O)NC(C)(C)C(=O)N[C@@H](CCC(N)=O)C(=O)N[C@H](C(=O)N[C@@H](CC(C)C)C(=O)N[C@@H](C)C(=O)N[C@@H](CCC(N)=O)C(=O)N[C@H](C(N)=O)C(C)C)[C@@H](C)CC)[C@@H](C)O)[C@@H](C)CC)[C@@H](C)CC)C(C)C)C(C)C [compound 234] (H-[NMeI]VLSLD[dV]PIKLK([AEEA-γGlu-C20 diacid])KILLEQEKQK[Aib]QREQAETN[Aib]QILAQV-NH2)
0.22 nM | 6 % I | > 250 nM | 0.4 nM | 68% | 0.0/Not Tested % | – | – | – | – | – | – | – | 7970 ng·h/mL | 840 min | CC[C@H](C)[C@H](NC)C(=O)N[C@H](C(=O)N[C@@H](CC(C)C)C(=O)N[C@@H](CO)C(=O)N[C@@H](CC(C)C)C(=O)N[C@@H](CC(=O)O)C(=O)N[C@@H](C(=O)N1CCC[C@H]1C(=O)N[C@H](C(=O)N[C@@H](CCCCN)C(=O)N[C@@H](CC(C)C)C(=O)N[C@@H](CCCCNC(=O)CC[C@H](NC(=O)CC[C@H](NC(=O)CCCCCCCCCCCCCCCCCCC(=O)O)C(=O)O)C(=O)O)C(=O)N[C@@H](CCCCN)C(=O)N[C@H](C(=O)N[C@@H](CC(C)C)C(=O)N[C@@H](CC(C)C)C(=O)N[C@@H](CCC(=O)O)C(=O)N[C@@H](CCC(N)=O)C(=O)N[C@@H](CCC(=O)O)C(=O)N[C@@H](CCCCN)C(=O)N[C@@H](CCC(N)=O)C(=O)N[C@@H](CCCCN)C(=O)N[C@@H](CCC(=O)O)C(=O)N[C@@H](CCC(N)=O)C(=O)N[C@@H](CCCNC(=N)N)C(=O)N[C@@H](CCC(=O)O)C(=O)N[C@@H](CCC(N)=O)C(=O)N[C@@H](C)C(=O)N[C@@H](CCC(=O)O)C(=O)N[C@H](C(=O)N[C@@H](CC(N)=O)C(=O)NC(C)(C)C(=O)N[C@@H](CCC(N)=O)C(=O)N[C@H](C(=O)N[C@@H](CC(C)C)C(=O)N[C@@H](C)C(=O)N[C@@H](CCC(N)=O)C(=O)N[C@H](C(N)=O)C(C)C)[C@@H](C)CC)[C@@H](C)O)[C@@H](C)CC)[C@@H](C)CC)C(C)C)C(C)C [compound 242] (H-[NMeI]VLSLD[dV]PIKLK([γGlu-γGlu-C20 diacid])KILLEQEKQKEQREQAETN[Aib]QILAQV-NH2)
